Values of other authors in patent US20030228635A1, “Cell proliferation assays and methods” (Renovar, Inc., priority 2002, published 2003).

Test system: cells
Settings: cells labelled with CFSE; Lyons and Parish 1994

For “carboxy-fluorescein diacetate, succinimidyl ester [CFSE]”, the “effect on cellular function” value is given as “does not adversely affect cellular function”.
